# Assay results as given in ChEMBL document CHEMBL1142810, “Discovery of a potent and selective 5-ht5A receptor antagonist by high-throughput chemistry” (Bioorg Med Chem Lett, 2005).
# How the values were obtained:
# [1] = target: 5-hydroxytryptamine receptor 5A (Homo sapiens, UniProt P47898); assay: Binding affinity towards human 5-hydroxytryptamine receptor 5A expressed in CHO cells using the radioligand [3H]LSD; type: cell-based
# D(2) dopamine receptor = D(2) dopamine receptor (Homo sapiens, UniProt P14416); assay: Binding affinity towards human dopamine receptor D2 expressed in CHO cells using the radioligand [125I]iodosulpiride; type: cell-based
# Chain of D(2) dopamine receptor (P14416 whole entry): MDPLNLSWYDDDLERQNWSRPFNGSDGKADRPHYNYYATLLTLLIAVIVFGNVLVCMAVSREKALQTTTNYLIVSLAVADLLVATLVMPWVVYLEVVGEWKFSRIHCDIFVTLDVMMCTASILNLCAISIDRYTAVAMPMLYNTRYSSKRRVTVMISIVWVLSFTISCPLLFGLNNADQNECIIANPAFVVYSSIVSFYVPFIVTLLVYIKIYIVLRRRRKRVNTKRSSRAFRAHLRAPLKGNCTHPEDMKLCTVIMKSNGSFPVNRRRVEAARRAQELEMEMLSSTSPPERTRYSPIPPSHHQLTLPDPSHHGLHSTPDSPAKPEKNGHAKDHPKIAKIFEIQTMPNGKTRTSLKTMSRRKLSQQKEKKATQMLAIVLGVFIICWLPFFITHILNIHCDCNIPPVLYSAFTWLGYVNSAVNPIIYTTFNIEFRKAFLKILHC
# D(4) dopamine receptor = target: T1, D(4) dopamine receptor (Homo sapiens, UniProt P21917); assay: Binding affinity towards human dopamine receptor D4 expressed in CHO cells using the radioligand [125I]iodosulpiride; type: cell-based
# T1 sequence (P21917 whole entry): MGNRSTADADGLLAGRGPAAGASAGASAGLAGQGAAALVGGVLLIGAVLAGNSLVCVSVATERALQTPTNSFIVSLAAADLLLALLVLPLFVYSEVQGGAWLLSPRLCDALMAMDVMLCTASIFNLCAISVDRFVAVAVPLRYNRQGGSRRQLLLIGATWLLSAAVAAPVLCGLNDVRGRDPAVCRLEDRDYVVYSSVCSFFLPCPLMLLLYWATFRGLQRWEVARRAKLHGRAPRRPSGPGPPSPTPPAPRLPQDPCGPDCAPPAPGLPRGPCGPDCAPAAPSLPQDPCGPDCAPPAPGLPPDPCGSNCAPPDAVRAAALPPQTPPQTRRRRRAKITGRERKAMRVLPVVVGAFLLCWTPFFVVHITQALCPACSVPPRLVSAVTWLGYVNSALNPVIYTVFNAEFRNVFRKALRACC
# [2] = target: T2, 5-hydroxytryptamine receptor 2C (Homo sapiens, UniProt P28335); assay: Binding affinity towards human 5-hydroxytryptamine receptor 2C expressed in HEK 293 cells using the radioligand [3H]mesulergine; type: cell-based, HEK293
# T2 sequence (P28335 whole entry): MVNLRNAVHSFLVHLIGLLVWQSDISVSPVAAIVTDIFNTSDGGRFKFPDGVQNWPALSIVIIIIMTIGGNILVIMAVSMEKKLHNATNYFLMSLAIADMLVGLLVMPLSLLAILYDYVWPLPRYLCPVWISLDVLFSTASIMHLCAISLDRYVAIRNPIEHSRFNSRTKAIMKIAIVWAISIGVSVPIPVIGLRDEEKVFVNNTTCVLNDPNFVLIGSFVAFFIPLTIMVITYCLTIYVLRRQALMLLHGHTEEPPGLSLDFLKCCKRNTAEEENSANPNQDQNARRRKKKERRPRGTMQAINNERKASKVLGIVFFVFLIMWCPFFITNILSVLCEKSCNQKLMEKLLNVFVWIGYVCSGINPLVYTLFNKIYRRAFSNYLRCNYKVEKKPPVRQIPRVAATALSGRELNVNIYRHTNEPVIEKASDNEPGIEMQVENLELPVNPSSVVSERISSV
# [3] = target: T3, 5-hydroxytryptamine receptor 1F (Homo sapiens, UniProt P30939); assay: Binding affinity towards human 5-hydroxytryptamine receptor 1F expressed in HEK 293 cells using the radioligand [3H]5-HT; type: cell-based, HEK293
# T3 sequence (P30939 whole entry): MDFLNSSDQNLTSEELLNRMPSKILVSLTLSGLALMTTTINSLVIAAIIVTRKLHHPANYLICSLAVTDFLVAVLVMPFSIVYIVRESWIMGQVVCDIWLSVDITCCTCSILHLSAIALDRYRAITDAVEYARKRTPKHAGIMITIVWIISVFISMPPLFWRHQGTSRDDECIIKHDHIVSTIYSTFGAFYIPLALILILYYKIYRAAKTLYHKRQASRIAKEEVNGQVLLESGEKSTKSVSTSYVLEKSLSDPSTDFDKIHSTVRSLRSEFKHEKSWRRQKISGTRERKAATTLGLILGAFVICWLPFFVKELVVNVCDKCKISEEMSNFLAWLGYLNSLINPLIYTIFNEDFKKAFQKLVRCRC
# [4] = target: T4, 5-hydroxytryptamine receptor 1A (Homo sapiens, UniProt P08908); assay: Binding affinity towards human 5-hydroxytryptamine receptor 1A expressed in HEK 293 cells using the radioligand [3H]8-OH-DPAT; type: cell-based, HEK293
# T4 sequence (P08908 whole entry): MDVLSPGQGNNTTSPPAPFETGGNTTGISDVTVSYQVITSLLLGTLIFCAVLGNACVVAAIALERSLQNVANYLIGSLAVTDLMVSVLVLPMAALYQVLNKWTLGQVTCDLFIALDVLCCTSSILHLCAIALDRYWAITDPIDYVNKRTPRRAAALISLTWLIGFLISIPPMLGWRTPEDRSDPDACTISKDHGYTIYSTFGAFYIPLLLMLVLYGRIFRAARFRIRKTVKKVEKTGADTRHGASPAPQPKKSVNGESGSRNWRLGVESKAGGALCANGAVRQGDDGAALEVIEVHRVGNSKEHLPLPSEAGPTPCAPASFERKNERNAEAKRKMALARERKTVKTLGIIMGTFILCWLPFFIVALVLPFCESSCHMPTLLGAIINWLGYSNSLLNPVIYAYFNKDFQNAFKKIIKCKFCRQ
# [5] = target: T5, Alpha-1B adrenergic receptor (Homo sapiens, UniProt P35368); assay: Binding affinity towards human alpha-1B-adrenergic receptor expressed in CHO cells using the radioligand [3H]prazosin; type: cell-based
# T5 sequence (P35368 whole entry): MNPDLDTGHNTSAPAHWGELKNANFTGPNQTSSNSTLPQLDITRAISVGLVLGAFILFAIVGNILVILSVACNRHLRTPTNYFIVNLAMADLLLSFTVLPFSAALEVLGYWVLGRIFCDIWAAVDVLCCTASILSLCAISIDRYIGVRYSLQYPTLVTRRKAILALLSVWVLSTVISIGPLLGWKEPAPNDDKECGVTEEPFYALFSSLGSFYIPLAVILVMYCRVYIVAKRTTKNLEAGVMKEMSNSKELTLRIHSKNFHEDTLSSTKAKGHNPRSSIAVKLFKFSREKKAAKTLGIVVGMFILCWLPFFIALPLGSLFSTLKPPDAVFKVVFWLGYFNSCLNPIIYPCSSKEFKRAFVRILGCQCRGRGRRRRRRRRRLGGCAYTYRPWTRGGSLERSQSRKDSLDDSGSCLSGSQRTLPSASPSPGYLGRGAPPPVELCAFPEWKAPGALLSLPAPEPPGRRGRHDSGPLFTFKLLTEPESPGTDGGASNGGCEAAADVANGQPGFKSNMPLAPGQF
# D(3) dopamine receptor = D(3) dopamine receptor (Homo sapiens, UniProt P35462); assay: Binding affinity towards human dopamine receptor D3 expressed in CHO cells using the radioligand [125I]iodosulpiride; type: cell-based
# Chain of D(3) dopamine receptor (P35462 whole entry): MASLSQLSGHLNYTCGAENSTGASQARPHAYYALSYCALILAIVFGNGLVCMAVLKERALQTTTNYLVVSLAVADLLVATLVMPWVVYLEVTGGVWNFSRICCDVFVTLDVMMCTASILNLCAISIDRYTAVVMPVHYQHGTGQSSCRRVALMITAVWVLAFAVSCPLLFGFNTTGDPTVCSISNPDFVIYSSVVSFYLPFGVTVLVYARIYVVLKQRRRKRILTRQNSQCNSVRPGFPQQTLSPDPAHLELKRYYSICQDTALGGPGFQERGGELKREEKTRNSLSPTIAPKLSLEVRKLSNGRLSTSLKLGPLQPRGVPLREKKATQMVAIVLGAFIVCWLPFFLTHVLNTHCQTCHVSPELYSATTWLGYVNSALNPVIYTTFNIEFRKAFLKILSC
# [6] = target: 5-hydroxytryptamine receptor 2B (Homo sapiens, UniProt P41595); assay: Binding affinity towards human 5-hydroxytryptamine receptor 2B expressed in HEK 293 cells using the radioligand [3H]5-HT; type: cell-based, HEK293
# Chain of 5-hydroxytryptamine receptor 2B (P41595 whole entry): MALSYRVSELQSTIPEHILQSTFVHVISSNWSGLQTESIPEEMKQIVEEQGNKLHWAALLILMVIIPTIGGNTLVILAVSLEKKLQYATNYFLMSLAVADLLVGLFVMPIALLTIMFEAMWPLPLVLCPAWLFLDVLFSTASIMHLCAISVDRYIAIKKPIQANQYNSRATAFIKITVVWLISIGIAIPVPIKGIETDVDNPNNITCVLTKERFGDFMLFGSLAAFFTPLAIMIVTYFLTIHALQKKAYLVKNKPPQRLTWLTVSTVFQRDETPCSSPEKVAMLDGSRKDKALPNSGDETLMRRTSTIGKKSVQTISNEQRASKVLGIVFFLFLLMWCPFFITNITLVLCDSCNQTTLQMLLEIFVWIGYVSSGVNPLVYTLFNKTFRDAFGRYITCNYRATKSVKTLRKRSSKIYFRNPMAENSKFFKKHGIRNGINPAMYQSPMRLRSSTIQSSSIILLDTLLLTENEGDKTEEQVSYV
# [7] = target: 5-hydroxytryptamine receptor 1B (Homo sapiens, UniProt P28222); assay: Binding affinity towards human 5-hydroxytryptamine receptor 1B expressed in CHO cells using the radioligand [3H]5-HT; type: cell-based
# Chain of 5-hydroxytryptamine receptor 1B (P28222 whole entry): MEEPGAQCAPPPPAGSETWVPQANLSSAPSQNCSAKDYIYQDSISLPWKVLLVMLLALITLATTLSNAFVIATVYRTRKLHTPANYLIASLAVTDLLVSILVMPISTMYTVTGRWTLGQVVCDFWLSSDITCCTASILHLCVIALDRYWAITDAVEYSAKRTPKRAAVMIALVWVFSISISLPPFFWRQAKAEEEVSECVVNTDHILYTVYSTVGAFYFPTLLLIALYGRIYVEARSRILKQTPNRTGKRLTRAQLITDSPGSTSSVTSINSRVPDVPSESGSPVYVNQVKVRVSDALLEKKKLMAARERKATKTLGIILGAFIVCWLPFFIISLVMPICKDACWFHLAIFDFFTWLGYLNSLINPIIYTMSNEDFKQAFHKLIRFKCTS
# [8] = target: 5-hydroxytryptamine receptor 1E (Homo sapiens, UniProt P28566); assay: Binding affinity towards human 5-hydroxytryptamine receptor 1E expressed in HEK 293 cells using the radioligand [3H]5-HT; type: cell-based, HEK293
# Chain of 5-hydroxytryptamine receptor 1E (P28566 whole entry): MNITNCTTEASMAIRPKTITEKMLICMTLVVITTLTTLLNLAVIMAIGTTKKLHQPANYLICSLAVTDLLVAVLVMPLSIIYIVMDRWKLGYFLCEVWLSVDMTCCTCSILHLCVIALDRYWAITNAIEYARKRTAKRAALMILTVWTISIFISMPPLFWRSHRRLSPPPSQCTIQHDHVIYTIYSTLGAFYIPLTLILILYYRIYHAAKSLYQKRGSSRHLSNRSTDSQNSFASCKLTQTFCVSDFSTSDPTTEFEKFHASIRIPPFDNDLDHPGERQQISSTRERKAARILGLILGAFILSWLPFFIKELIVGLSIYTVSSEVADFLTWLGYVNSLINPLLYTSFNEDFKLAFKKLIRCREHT
# [9] = target: 5-hydroxytryptamine receptor 6 (Homo sapiens, UniProt P50406); assay: Binding affinity towards human 5-hydroxytryptamine receptor 6 expressed in HeLa cells using the radioligand [3H]LSD; type: cell-based
# Chain of 5-hydroxytryptamine receptor 6 (P50406 whole entry): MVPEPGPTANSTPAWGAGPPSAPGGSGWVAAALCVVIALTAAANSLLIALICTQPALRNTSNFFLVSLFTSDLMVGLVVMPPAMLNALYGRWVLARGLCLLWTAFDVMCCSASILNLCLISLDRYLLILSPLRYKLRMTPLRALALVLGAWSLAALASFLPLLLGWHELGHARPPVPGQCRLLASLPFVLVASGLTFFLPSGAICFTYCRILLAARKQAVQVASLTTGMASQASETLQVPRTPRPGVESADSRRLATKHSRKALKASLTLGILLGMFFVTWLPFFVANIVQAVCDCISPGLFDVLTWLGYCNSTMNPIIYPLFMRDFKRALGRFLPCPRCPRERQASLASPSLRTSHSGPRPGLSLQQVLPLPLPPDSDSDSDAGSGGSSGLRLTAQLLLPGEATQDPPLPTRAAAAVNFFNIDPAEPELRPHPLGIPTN
# [10] = target: 5-hydroxytryptamine receptor 7 (Homo sapiens, UniProt P34969); assay: Binding affinity towards human 5-hydroxytryptamine receptor 7 expressed in HEK 293 cells using the radioligand [3H]5-CT; type: cell-based, HEK293
# Chain of 5-hydroxytryptamine receptor 7 (P34969 whole entry): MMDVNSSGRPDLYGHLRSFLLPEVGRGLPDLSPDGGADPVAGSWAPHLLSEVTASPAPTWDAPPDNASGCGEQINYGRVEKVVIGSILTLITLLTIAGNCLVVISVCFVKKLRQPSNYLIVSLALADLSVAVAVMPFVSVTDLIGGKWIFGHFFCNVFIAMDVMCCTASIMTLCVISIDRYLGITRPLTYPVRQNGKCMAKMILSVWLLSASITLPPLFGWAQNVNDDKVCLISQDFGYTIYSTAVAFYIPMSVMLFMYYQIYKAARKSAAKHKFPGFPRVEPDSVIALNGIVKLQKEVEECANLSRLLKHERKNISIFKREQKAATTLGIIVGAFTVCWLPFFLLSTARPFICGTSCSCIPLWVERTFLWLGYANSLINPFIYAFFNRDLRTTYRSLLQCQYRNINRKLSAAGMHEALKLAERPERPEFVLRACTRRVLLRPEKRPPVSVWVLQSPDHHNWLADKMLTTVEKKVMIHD
# [11] = target: 5-hydroxytryptamine receptor 2A (Homo sapiens, UniProt P28223); assay: Binding affinity towards human 5-hydroxytryptamine receptor 2A expressed in HEK 293 cells using the radioligand [3H]ketanserin; type: cell-based, HEK293
# Chain of 5-hydroxytryptamine receptor 2A (P28223 whole entry): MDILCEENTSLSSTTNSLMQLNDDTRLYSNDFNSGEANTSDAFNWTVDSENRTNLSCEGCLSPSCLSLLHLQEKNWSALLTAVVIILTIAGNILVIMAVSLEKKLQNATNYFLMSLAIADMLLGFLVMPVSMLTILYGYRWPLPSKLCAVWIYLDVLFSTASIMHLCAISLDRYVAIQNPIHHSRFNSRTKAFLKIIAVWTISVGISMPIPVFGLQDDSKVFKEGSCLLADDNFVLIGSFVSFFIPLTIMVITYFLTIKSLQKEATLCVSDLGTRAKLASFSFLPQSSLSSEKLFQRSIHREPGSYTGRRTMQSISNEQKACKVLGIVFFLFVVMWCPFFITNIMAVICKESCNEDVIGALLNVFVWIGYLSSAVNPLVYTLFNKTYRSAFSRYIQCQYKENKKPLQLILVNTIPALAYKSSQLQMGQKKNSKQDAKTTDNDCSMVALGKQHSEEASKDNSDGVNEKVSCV
# [12] = target: 5-hydroxytryptamine receptor 1D (Homo sapiens, UniProt P28221); assay: Binding affinity towards human 5-hydroxytryptamine receptor 1D expressed in CHO cells using the radioligand [3H]5-HT; type: cell-based
# Chain of 5-hydroxytryptamine receptor 1D (P28221 whole entry): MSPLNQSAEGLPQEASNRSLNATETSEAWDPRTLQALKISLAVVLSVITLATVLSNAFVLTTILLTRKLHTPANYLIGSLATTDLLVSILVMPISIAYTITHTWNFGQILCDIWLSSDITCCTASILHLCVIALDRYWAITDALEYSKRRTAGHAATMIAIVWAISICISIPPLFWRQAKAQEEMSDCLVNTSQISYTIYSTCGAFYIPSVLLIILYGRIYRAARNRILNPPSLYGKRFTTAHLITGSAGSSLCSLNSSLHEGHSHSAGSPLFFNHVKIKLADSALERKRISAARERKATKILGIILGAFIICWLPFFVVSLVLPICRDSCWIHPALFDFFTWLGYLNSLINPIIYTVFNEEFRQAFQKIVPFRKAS
# Chain of 5-hydroxytryptamine receptor 5A (P47898 whole entry): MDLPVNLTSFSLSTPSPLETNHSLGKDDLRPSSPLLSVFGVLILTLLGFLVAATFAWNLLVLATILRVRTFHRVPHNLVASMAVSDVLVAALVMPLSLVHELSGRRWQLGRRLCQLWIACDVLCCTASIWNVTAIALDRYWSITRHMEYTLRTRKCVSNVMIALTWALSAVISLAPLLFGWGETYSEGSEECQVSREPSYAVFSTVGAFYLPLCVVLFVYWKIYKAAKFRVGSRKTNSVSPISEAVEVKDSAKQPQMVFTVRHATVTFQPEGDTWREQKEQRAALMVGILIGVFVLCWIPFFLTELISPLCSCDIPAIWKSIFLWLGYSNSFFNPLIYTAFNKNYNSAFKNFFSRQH
smiles,measurement,setting,value
CN(C)CCN(Cc1ccc(-c2ccc(CNCCc3ccccc3)cn2)cc1)C(=O)CCC1CCCC1,Ki,[1],12.6 nM
O=C(/C=C/c1ccccc1)N(Cc1ccc(-c2ccc(CNCCc3ccccc3)cc2)cc1)Cc1cccnc1,Ki,D(2) dopamine receptor,1260 nM
same,Ki,D(4) dopamine receptor,1580 nM
same,Ki,[2],1000 nM
same,Ki,[3],> 1000 nM
same,Ki,[4],1000 nM
same,Ki,[5],316 nM
same,Ki,D(3) dopamine receptor,1580 nM
same,Ki,[6],2000 nM
same,Ki,[7],631 nM
same,Ki,[8],> 10000 nM
same,Ki,[9],> 2000 nM
same,Ki,[10],1260 nM
same,Ki,[11],794 nM
same,Ki,[1],50.1 nM
same,Ki,[12],1260 nM
CN(C)CCN(Cc1ccc(-c2ccc(CNCCc3ccccc3)cc2)cc1)C(=O)CCC1CCCC1,Ki,D(2) dopamine receptor,1260 nM
same,Ki,D(4) dopamine receptor,794 nM
same,Ki,[2],398 nM
same,Ki,[3],> 10000 nM
same,Ki,[4],501 nM
same,Ki,[5],316 nM
same,Ki,D(3) dopamine receptor,631 nM
same,Ki,[6],1000 nM
same,Ki,[7],316 nM
same,Ki,[8],> 10000 nM
same,Ki,[9],3980 nM
same,Ki,[10],3980 nM
same,Ki,[11],794 nM
same,Ki,[1],6.31 nM
same,Ki,[12],398 nM
CN(C)CCN(Cc1ccc(-c2ccc(CNCCc3ccccc3)cc2)cc1)C(=O)C1CC1c1ccccc1 (centres undefined),Ki,[1],79.4 nM
CN(C)CCN(Cc1ccc(-c2ccc(CNCCc3ccccc3)cc2)nc1)C(=O)/C=C/c1ccccc1,Ki,[1],25.1 nM
CN(C)CCN(Cc1ccc(-c2ccc(CN)cc2)cc1)C(=O)CCC1CCCC1,Ki,[1],3160 nM
CN(C)CCN(Cc1ccc(-c2ccc(CNCCOc3ccccc3)cc2)cc1)C(=O)CCC1CCCC1,Ki,[1],79.4 nM
c1ccc(CCNCc2ccc(-c3ccc(CNC4CCN(Cc5ccccc5)CC4)cc3)cc2)cc1,Ki,[1],126 nM
CN(C)CCN(Cc1ccc(-c2ccc(CNCCc3ccccc3)cc2)cc1)C(=O)/C=C/c1ccccc1,Ki,D(2) dopamine receptor,794 nM
same,Ki,D(4) dopamine receptor,1260 nM
same,Ki,[2],631 nM
same,Ki,[3],> 10000 nM
same,Ki,[4],794 nM
same,Ki,[5],200 nM
same,Ki,D(3) dopamine receptor,1000 nM
same,Ki,[6],1260 nM
same,Ki,[7],631 nM
same,Ki,[8],> 10000 nM
same,Ki,[9],> 7940 nM
same,Ki,[10],1000 nM
same,Ki,[11],398 nM
same,Ki,[1],25.1 nM
same,Ki,[12],158 nM
O=C(CCC1CCCC1)N(Cc1ccc(-c2ccc(CNCCc3ccccc3)cc2)cc1)CC1CCCCN1 (centres undefined),Ki,[1],25.1 nM
CN(C)CCN(Cc1ccc(-c2ccc(CNCCc3ccccc3)cc2)cc1)C(=O)c1ccccc1,Ki,[1],631 nM
CN(C)CCN(Cc1ccc(-c2ccc(CNCCc3ccccc3)cc2)cc1)S(=O)(=O)/C=C/c1ccccc1,Ki,[1],251 nM
